Key:
Assay type in all cases: biochemical
JAK3 = target: T1, JAK3 (Homo sapiens, UniProt P52333); assay: JAK3 inhibition (Table 4); conditions: read-out: JAK3 Ki
T1 construct: made in house; host or cells: SF9 insect cells (baculovirus)

JAK1 = target: T2, JAK1 (Homo sapiens, UniProt P23458); assay: JAK1 inhibition (Table 4); conditions: read-out: JAK1 Ki
T2 construct: made in house; host or cells: SF9 insect cells (baculovirus)

JAK2 = target: T3, JAK2 (Homo sapiens, UniProt O60674); assay: JAK2 inhibition (Table 4); conditions: read-out: JAK2 Ki
T3 construct: made in house; host or cells: SF9 insect cells (baculovirus)
T3 sequence (O60674 812-1132): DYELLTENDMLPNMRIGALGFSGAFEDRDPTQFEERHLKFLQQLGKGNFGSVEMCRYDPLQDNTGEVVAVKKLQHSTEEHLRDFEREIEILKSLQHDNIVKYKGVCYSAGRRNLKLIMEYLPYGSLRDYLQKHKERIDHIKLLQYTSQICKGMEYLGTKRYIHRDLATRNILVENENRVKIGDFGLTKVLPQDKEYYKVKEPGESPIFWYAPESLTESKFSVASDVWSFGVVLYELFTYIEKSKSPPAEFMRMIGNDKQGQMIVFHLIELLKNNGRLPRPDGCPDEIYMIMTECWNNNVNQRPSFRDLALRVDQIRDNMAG

TYK2 = target: T4, TYK2 (Homo sapiens, UniProt P29597); assay: TYK2 inhibition (Table 4)
T4 construct: made in house; host or cells: SF9 insect cells (baculovirus)
T4 sequence (P29597 873-1187): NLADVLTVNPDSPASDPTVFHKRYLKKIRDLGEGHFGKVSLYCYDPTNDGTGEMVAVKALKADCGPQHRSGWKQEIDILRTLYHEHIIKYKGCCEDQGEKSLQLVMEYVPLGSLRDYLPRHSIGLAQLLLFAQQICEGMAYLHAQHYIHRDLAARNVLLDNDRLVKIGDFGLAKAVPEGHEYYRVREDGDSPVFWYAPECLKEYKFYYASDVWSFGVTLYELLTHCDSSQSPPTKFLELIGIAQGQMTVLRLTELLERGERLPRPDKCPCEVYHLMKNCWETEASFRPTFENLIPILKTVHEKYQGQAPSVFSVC

T2 sequence (P23458 852-1154): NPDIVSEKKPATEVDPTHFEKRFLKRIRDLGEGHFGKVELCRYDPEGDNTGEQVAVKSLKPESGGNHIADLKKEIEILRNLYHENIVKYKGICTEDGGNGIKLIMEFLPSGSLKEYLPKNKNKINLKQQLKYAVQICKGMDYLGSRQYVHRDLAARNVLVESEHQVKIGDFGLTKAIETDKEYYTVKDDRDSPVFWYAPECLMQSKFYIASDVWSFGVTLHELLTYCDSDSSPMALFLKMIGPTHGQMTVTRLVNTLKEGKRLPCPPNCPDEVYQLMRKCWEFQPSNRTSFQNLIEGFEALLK
T1 sequence (P52333 783-1124): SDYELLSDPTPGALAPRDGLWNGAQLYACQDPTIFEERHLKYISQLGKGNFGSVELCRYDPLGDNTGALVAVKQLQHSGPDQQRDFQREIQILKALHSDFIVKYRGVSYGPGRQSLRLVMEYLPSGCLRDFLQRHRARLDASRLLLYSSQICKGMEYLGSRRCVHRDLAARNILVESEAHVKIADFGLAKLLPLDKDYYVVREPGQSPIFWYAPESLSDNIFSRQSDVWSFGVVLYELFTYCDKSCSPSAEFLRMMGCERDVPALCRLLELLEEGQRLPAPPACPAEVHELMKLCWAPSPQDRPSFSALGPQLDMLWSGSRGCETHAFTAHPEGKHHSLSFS

Ki (JAK3)	Ki (JAK1)	Ki (JAK2)	Ki (TYK2)	Structure (SMILES)
7.69 nM	0.73 nM	2.82 nM	21 nM	N#Cc1cccc(N2CCC(n3cnc4cnc5[nH]ccc5c43)CC2)n1 [Example 94, 4-(6H-1,3,5,6-Tetraaza-as-indacen-1-yl)-3,4,5,6-tetrahydro-2H-[1,2′]bipyridinyl-6′-carbonitrile]
161 nM	12.2 nM	35.4 nM	102 nM	N#Cc1ccc(N2CCC(n3cnc4cnc5[nH]ccc5c43)CC2)nc1 [Example 95, 4-(6H-1,3,5,6-Tetraaza-as-indacen-1-yl)-3,4,5,6-tetrahydro-2H-[1,2′]bipyridinyl-5′-carbonitrile]
10.8 nM	4.29 nM	16.4 nM	586 nM	O=C(Cc1nc2cnc3[nH]ccc3c2n1C1CCN(Cc2ccccc2)CC1)NC1CCCC1 [Example 99, 2-[1-(1-Benzyl-piperidin-4-yl)-1,6-dihydro-1,3,5,6-tetraaza-as-indacen-2-yl]-N-cyclopentyl-acetamide]
16.9 nM	22.1 nM	99.2 nM	2100 nM	O=C(Cc1nc2cnc3[nH]ccc3c2n1C1CCN(Cc2ccccc2)CC1)N1CCCC1 [Example 100, 2-[1-(1-Benzyl-piperidin-4-yl)-1,6-dihydro-1,3,5,6-tetraaza-as-indacen-2-yl]-1-pyrrolidin-1-yl-ethanone]
27.7 nM	41 nM	194 nM	3230 nM	CN(C(=O)Cc1nc2cnc3[nH]ccc3c2n1C1CCN(Cc2ccccc2)CC1)C1CCCC1 [Example 101, 2-[1-(1-Benzyl-piperidin-4-yl)-1,6-dihydro-1,3,5,6-tetraaza-as-indacen-2-yl]-N-cyclopentyl-N-methyl-acetamide]
9.7 nM	5.78 nM	51.4 nM	442 nM	O=C(Cc1nc2cnc3[nH]ccc3c2n1C1CCN(Cc2ccccc2)CC1)N1CCS(=O)(=O)CC1 [Example 102, 2-[1-(1-Benzyl-piperidin-4-yl)-1,6-dihydro-1,3,5,6-tetraaza-as-indacen-2-yl]-1-(1,1-dioxo-1λ*6*thiomorpholin-4-yl)ethanone]
11.6 nM	5.09 nM	17.3 nM	673 nM	CC(C)NC(=O)Cc1nc2cnc3[nH]ccc3c2n1C1CCN(Cc2ccccc2)CC1 [Example 103, 2-[1-(1-Benzyl-piperidin-4-yl)-1,6-dihydro-1,3,5,6-tetraaza-as-indacen-2-yl]-N-isopropylacetamide]
11.5 nM	0.9 nM	1.69 nM	20.9 nM	c1cc2c(ncc3ncn(C4CCN(Cc5cncs5)CC4)c32)[nH]1 [Example 104, 1-(1-Thiazol-5-ylmethyl-piperidin-4-yl)-1,6-dihydro-1,3,5,6-tetraaza-as-indacene]
43.6 nM	5.5 nM	10.8 nM	35.6 nM	CC(=O)N[C@H]1CC[C@H](n2cnc3cnc4[nH]ccc4c32)CC1 [Example 106, Trans N-[4-(6H-1,3,5,6-tetraaza-as-indacen-1-yl)-cyclohexyl]acetamide]
17 nM	9.74 nM	28.7 nM	16.7 nM	Cc1nc2cnc3[nH]ccc3c2n1C1CCC(F)(F)CC1 [Example 114, 1-(4,4-Difluoro-cyclohexyl)-2-methyl-1,6-dihydro-1,2,3,5,6-tetraaza-as-indacene]

Structure (SMILES)	Ki (JAK3)	Ki (JAK1)	Ki (JAK2)	Ki (TYK2)
CS(=O)(=O)N1[C@@H]2CC[C@H]1C[C@H](n1cnc3cnc4[nH]ccc4c31)C2 [Example 97, 1-((1S,3S,5R)-8-Methanesulfonyl-8-aza-bicyclo[3.2.1]oct-3-yl)-1,6-dihydro-1,3,5,6-tetraaza-as-indacene]	29.6 nM	3.51 nM	2.32 nM	19.8 nM
N#CCCN1[C@@H]2CC[C@H]1C[C@H](n1cnc3cnc4[nH]ccc4c31)C2 [Example 98, 3-[(1S,3S,5R)-3-(6H-1,3,5,6-Tetraaza-as-indacen-1-yl)-8-aza-bicyclo[3.2.1]oct-8-yl]propionitrile]	11.8 nM	2.04 nM	1.63 nM	8.64 nM

— US8461328B2, “Tricyclic heterocyclic compounds, compositions and methods of use thereof” (Genentech, Inc., priority 2010, dated 2013)
